Results reported in PMC5549559 (Cellular signalling, 2015).

How the values were obtained:
[1] = tested on: kappa opioid receptor (KOR); experiment: GloSensor cAMP assay; type: cell-based
[2] = tested on: rats; settings: ref [11], cited from earlier work; for cocaine self-administration (drug intake): intra-VTA infusion, rats
[3] = tested on: p38; experiment: p38 activation; type: cell-based, Chinese hamster; settings: western blot, ± SD, mean of 3 separate experiments (Figure 5D)
[4] = tested on: kappa opioid receptor (KOR); experiment: PathHunter β-arrestin recruitment assay in Drx-KOR cells; type: cell-based; settings: dynorphin, various concentrations, 90 min at 37°C; Drx-KOR cells (Figure 5A)

Compound: O=S(=O)(NCCNC/C=C/c1ccc(Br)cc1)c1cccc2cnccc12 [H89]
- effect of PKA inhibitor on OX1R attenuation of KOR Gαi signaling ([1]; PKI or H89, 2 h, CHO-KOR + HA-OX1R, 500 nM orexin, 1 μM dynorphin (Figure 2B)): did not affect OX1R attenuation of KOR Gαi signaling

Compound: Cc1nc2ccc(NC(=O)Nc3ccnc4cccnc34)cc2o1 [SB-334867]
- cocaine self-administration (drug intake) [2]: reduces cocaine self-administration in rats

Compound: Oc1ccc2c3c1O[C@H]1c4[nH]c5c(c4C[C@@]4(O)[C@@H](C2)N(CC2CC2)CC[C@]314)C[C@@]1(O)[C@H]2Cc3ccc(O)c4c3[C@@]1(CCN2CC1CC1)[C@H]5O4 [norBNI]
- cocaine self-administration (drug intake) [2]: has no effect on drug intake
- effect on ability of SB-334867 to reduce drug intake ([2]; norBNI with SB-334867, rats): blocks the ability of SB-334867 to reduce drug intake

Compound: Dynorphin A (1-17) (YGGFLRRIRPKLKWDNQ; Dynorphin A(1-17); UniProt P01213 207-223, looked up)
- increase in phospho-p38/total p38 ([3]; 1 μM dynorphin, 15 min, CHO-KOR cells, relative to untreated): 1.76 ± 0.12 fold
- increase in phospho-p38/total p38 ([3]; CHO-KOR + HA-OX1R, 500 nM orexin 10 min prior to dynorphin, relative to untreated cells): 2.82 ± 0.36 fold
- KOR response to dynorphin (cAMP) on transfection and activation of 5HT2aR ([1]; 1 μM dynorphin, CHO-KOR + 5HT2aR, activated (Figure 1A)): does not affect the KOR response to dynorphin
- β-arrestin recruitment to KOR (luminescence) [4]: concentration-dependent increase in luminescence
